ChEMBL document CHEMBL1134098, “Bioisosteric determinants for subtype selectivity of ligands for heteromeric GABA(A) receptors” (Bioorg Med Chem Lett, 2001)

Experiments:
[1] = target: T1, GABA-A receptor; alpha-1/beta-3/gamma-2 (Homo sapiens, UniProt P14867+P18507+P28472); assay: Effective agonist dose for human Gamma-aminobutyric acid A receptor alpha-1-beta-3-gamma-2 expressed in Xenopus oocytes; type: functional, cell-based, Oocyte
T1 sequence (P14867 whole entry): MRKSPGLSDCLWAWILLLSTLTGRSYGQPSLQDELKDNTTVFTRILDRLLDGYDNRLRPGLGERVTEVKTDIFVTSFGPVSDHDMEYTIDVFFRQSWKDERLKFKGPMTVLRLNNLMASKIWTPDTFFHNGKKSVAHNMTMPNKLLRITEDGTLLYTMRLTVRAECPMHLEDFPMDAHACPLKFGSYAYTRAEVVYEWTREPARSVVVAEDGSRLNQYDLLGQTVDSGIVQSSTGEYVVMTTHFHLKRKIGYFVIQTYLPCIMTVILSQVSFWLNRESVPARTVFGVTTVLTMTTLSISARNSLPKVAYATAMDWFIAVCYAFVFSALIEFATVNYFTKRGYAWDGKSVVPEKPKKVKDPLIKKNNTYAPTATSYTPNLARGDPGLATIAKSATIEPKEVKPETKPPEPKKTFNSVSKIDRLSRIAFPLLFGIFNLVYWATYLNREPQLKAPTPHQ
T1 sequence (P18507 whole entry): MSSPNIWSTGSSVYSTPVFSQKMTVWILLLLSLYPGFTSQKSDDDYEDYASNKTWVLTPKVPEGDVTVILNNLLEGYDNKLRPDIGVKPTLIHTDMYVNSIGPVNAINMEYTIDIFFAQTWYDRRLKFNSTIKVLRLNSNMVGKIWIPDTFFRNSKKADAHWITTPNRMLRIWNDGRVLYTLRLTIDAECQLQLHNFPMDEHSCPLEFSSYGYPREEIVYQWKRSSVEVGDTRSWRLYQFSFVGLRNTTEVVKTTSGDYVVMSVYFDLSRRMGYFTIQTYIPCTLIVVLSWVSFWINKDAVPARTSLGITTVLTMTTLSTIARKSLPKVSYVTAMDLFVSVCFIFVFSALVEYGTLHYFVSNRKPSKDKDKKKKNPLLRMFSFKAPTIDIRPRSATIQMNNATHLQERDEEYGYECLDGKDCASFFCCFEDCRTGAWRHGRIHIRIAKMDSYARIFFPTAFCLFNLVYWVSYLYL
T1 sequence (P28472 whole entry): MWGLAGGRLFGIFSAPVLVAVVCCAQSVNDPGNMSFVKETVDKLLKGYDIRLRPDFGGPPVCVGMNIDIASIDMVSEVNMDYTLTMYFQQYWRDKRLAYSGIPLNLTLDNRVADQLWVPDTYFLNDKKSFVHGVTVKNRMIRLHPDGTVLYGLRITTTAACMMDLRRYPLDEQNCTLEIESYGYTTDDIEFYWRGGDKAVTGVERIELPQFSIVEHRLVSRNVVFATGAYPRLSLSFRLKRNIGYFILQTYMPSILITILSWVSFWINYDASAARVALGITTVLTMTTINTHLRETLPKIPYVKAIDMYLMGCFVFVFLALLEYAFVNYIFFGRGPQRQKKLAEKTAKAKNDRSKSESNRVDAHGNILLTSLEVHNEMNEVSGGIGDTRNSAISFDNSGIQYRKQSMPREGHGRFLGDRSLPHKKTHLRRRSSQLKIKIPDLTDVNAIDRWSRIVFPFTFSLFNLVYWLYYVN

[2] = target: T2, GABA-A receptor; alpha-6/beta-3/gamma-2 (Homo sapiens, UniProt P18507+P28472+Q16445); assay: Effective agonist dose for human Gamma-aminobutyric acid A receptor alpha-6-beta-3-gamma-2; type: functional
T2 sequence (Q16445 whole entry, one chain of several): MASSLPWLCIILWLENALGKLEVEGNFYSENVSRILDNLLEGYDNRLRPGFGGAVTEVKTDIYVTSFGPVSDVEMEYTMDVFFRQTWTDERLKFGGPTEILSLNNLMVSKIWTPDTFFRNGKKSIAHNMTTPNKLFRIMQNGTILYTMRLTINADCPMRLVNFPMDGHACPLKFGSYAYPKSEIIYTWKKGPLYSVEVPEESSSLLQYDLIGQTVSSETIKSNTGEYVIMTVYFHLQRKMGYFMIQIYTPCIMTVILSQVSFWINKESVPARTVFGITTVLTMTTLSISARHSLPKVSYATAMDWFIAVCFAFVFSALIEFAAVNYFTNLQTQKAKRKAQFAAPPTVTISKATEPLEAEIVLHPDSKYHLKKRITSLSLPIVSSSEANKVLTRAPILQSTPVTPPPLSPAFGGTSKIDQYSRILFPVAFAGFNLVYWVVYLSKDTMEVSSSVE

[3] = target: GABA-A receptor; alpha-3/beta-3/gamma-2 (Homo sapiens) (UniProt P18507+P28472+P34903); assay: Maximal response relative to Gamma-aminobutyric acid A against human Gamma-aminobutyric-acid A receptor alpha-3-beta-3-gamma-2 expressed in Xenopus oocytes; type: functional, cell-based; conditions: Oocyte
[4] = target: GABA-A receptor; alpha-1/beta-3/gamma-2 (Homo sapiens) (UniProt P14867+P18507+P28472); assay: Maximal response relative to Gamma-aminobutyric acid A against human Gamma-aminobutyric-acid A receptor alpha-1-beta-3-gamma-2 expressed in Xenopus oocytes; type: functional, cell-based; conditions: Oocyte
[5] = target: T2, GABA-A receptor; alpha-6/beta-3/gamma-2; assay: Maximal response relative to Gamma-aminobutyric acid A against human Gamma-aminobutyric-acid A receptor alpha-6-beta-3-gamma-2 expressed in Xenopus oocytes; type: functional, cell-based; conditions: Oocyte
[6] = target: T3, GABA A receptor alpha-4/beta-3/gamma-2 (Homo sapiens, UniProt P18507+P28472+P48169); assay: Effective agonist dose for human Gamma-aminobutyric acid A receptor alpha-4-beta-3-gamma-2; type: functional
T3 sequence (P48169 whole entry, one chain of several): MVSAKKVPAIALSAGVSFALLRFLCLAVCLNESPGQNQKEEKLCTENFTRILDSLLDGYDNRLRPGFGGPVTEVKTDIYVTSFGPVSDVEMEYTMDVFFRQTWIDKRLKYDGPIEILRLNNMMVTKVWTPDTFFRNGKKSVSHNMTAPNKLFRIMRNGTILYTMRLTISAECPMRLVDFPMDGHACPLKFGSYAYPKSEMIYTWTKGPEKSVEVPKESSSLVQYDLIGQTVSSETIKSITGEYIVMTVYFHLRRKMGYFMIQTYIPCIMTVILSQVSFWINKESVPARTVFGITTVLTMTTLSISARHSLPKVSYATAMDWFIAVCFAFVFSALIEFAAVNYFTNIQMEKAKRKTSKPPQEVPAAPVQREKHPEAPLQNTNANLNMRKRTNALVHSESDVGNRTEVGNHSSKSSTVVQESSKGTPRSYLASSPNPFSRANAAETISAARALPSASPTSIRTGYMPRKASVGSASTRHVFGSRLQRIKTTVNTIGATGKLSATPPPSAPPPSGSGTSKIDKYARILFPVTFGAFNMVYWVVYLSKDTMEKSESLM

[7] = target: GABA-A receptor; alpha-2/beta-3/gamma-2 (Homo sapiens) (UniProt P18507+P28472+P47869); assay: Maximal response relative to Gamma-aminobutyric acid A against human Gamma-aminobutyric-acid A receptor alpha-2-beta-3-gamma-2 expressed in Xenopus oocytes; type: functional, cell-based; conditions: Oocyte
[8] = target: T4, GABA-A receptor; alpha-2/beta-3/gamma-2 (Homo sapiens, UniProt P18507+P28472+P47869); assay: Agonist activity on human Gamma-aminobutyric acid A receptor alpha-2-beta-3-gamma-2 expressed in Xenopus oocytes; type: functional, cell-based, Oocyte
T4 sequence (P18507 whole entry): T1 sequence (P18507 whole entry)
T4 sequence (P28472 whole entry): T1 sequence (P28472 whole entry)
T4 sequence (P47869 whole entry): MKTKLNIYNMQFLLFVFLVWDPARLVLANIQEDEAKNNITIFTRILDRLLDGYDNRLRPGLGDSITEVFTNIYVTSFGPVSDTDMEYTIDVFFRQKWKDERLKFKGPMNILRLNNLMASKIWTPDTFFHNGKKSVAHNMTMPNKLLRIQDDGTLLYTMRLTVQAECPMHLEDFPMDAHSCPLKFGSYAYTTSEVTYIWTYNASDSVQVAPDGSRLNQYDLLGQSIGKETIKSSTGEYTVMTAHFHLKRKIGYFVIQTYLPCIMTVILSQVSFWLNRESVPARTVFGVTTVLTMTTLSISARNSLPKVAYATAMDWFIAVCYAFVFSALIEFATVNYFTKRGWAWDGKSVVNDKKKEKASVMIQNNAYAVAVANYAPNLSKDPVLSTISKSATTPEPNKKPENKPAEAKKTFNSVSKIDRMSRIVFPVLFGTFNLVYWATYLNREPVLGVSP

[9] = target: T5, GABA-A receptor; alpha-3/beta-3/gamma-2 (Homo sapiens, UniProt P18507+P28472+P34903); assay: Agonist activity on human Gamma-aminobutyric acid A receptor alpha-3-beta-3-gamma-2 expressed in Xenopus oocytes; type: functional, cell-based, Oocyte
T5 sequence (P18507 whole entry): T1 sequence (P18507 whole entry)
T5 sequence (P28472 whole entry): T1 sequence (P28472 whole entry)
T5 sequence (P34903 whole entry): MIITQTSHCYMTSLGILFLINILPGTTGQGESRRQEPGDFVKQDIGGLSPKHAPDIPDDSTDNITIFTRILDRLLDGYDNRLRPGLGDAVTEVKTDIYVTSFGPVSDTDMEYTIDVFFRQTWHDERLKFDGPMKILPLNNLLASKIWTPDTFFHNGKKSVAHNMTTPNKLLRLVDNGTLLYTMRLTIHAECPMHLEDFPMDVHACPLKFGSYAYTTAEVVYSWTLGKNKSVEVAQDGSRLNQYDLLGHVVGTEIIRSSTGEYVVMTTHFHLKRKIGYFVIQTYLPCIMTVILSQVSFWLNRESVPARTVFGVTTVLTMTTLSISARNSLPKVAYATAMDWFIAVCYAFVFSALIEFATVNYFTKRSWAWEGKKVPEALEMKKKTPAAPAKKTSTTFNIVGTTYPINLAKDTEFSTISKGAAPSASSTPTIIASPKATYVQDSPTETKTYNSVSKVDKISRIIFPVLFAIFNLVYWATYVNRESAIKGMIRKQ

[10] = target: T3, GABA A receptor alpha-4/beta-3/gamma-2; assay: Maximal response relative to Gamma-aminobutyric acid A against human Gamma-aminobutyric-acid A receptor alpha-4-beta-3-gamma-2 expressed in Xenopus oocytes; type: functional, cell-based; conditions: Oocyte
[11] = target: GABA-A receptor; alpha-5/beta-3/gamma-2 (Homo sapiens) (UniProt P18507+P28472+P31644); assay: Maximal response relative to Gamma-aminobutyric acid A against human Gamma-aminobutyric-acid A receptor alpha-5-beta-3-gamma-2 expressed in Xenopus oocytes; type: functional, cell-based; conditions: Oocyte
[12] = target: T6, GABA-A receptor; alpha-5/beta-3/gamma-2 (Homo sapiens, UniProt P18507+P28472+P31644); assay: Effective agonist dose for human Gamma-aminobutyric acid A receptor alpha-5-beta-3-gamma-2 expressed in Xenopus oocytes; type: functional, cell-based, Oocyte
T6 sequence (P18507 whole entry): T1 sequence (P18507 whole entry)
T6 sequence (P28472 whole entry): T1 sequence (P28472 whole entry)
T6 sequence (P31644 whole entry): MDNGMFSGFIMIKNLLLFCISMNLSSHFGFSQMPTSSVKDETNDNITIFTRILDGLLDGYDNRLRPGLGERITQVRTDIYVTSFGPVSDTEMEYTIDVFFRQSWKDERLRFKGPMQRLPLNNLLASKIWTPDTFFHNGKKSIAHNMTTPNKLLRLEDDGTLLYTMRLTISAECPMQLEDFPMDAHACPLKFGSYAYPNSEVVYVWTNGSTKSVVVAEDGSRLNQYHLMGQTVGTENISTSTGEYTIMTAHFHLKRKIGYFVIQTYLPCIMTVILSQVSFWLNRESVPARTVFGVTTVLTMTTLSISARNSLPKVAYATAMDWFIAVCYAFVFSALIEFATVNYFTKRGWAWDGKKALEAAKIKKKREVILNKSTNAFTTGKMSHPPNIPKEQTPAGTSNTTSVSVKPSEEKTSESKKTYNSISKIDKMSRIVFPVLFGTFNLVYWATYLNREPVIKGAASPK

[13] = target: T6, GABA-A receptor; alpha-5/beta-3/gamma-2; assay: Antagonistic potency against human Gamma-aminobutyric acid A receptor alpha-5-beta-3-gamma-2 expressed in Xenopus oocytes at 1 mM; type: functional, cell-based, Oocyte
[14] = target: T1, GABA-A receptor; alpha-1/beta-3/gamma-2; assay: Antagonistic potency against human Gamma-aminobutyric acid A receptor alpha-1-beta-3-gamma-2 expressed in Xenopus oocytes at 1 mM; type: functional, cell-based, Oocyte
[15] = target: T2, GABA-A receptor; alpha-6/beta-3/gamma-2; assay: Antagonistic potency against human Gamma-aminobutyric acid A receptor alpha-6-beta-3-gamma-2 expressed in Xenopus oocytes at 1 mM; type: functional, cell-based, Oocyte
[16] = target: T4, GABA-A receptor; alpha-2/beta-3/gamma-2; assay: Antagonistic potency against human Gamma-aminobutyric acid A receptor alpha-2-beta-3-gamma-2 expressed in Xenopus oocytes at 1 mM; type: functional, cell-based, Oocyte
[17] = target: T5, GABA-A receptor; alpha-3/beta-3/gamma-2; assay: Antagonistic potency against human Gamma-aminobutyric acid A receptor alpha-3-beta-3-gamma-2 expressed in Xenopus oocytes at 1 mM; type: functional, cell-based, Oocyte
[18] = target: T3, GABA A receptor alpha-4/beta-3/gamma-2; assay: Antagonistic potency against human […] Gamma-aminobutyric acid A receptor alpha-4-beta-3-gamma-2; type: functional
[19] = target: T5, GABA-A receptor; alpha-3/beta-3/gamma-2; assay: Effective dose for agonist activity on activity on human Gamma-aminobutyric acid A receptor alpha-3-beta-3-gamma-2 expressed in Xenopus oocytes; type: functional, cell-based, Oocyte

SMILES	EC50 [1] [µM]	EC50 [2] [µM]	Max [3]	Max [4]	Max [5]	EC50 [6] [µM]	Max [7]	EC50 [8] [µM]	EC50 [9] [µM]	Max [10]	Max [11]	EC50 [12] [µM]	Ki [13] [µM]	Ki [14] [µM]	Ki [15] [µM]	Ki [16] [µM]	Ki [17] [µM]	Ki [18] [µM]	EC50 [19] [µM]
O=C(O)C1=CCNCC1 [ISOGUVACINE]	160	20	69	88	98	180	88	50	55	88	94	75							
O=P(O)(O)C1CCNCC1													2800	3300	4800	2100	3800	3100	
O=C(O)Cc1c[nH]cn1 [IMIDAZOLE ACETIC ACID]	310	460	54	24	25	340	72	600	300	27	56	420							
O=[PH](O)C1CCNCC1	270	140	29	5	35	140	17	280	160	0	17	260							
CP(=O)(O)C1CCNCC1													420	310	460	600	300	340	
O=S(=O)(O)C1CCNCC1	40	20	75	21	15	200	96	26	65	7.2	92	20							
NCCCC(=O)O			100	100	100		100			100	100								
O=C(O)C1CCNCC1 [ISONIPECOTIC ACID]	620	160	46	46	83	300	53	420		104	57	690							370
NCCC[Se](=O)O	1400	3000	33	30	51	2100	47	1500	4900	16	58	1900							
O=[PH](O)C1(O)CCNCC1													1900	1400	3000	1500	4900	2100	
